Test results: patent EP1847550A2, “Peptides effective in the treatment of tumors and other conditions requiring the removal or destruction of cells” (NYMOX CORPORATION, priority 2001, dated 2007)
Ends that are not written are not given here.

How the values were obtained:
[1] = test system: muscle tissue, subcutaneous connective tissue, and dermis; assay: Injection into skin, subcutaneous tissue and extremity skeletal muscle of normal rats, histopathology of injection foci at 24 hours; assay type: in vivo
Source text: The individual foci of infiltration were excised, fixed in 10% formalin, embedded in paraffin, and stained and examined by standard histopathological methods.
The controls received saline alone.
Tissues were excised, fixed in 10% formalin, embedded in paraffin, and stained and examined by standard histopathological methods.

Rat prostate = assay: Intraprostatic infusion in rats, histology of the prostate gland after 72 hours; assay type: in vivo; conditions: 300 µl of 1 mg/mL in PBS pH 7.4 (1.0 mg/kg), sacrificed after 72 hours, H & E histology
Description: Four rats were anesthetized with ether and given NTP peptide #7 by intraprostatic infusion. The injections consisted of 300 µl of NTP peptide #7 1 mg/mL in PBS pH 7.4. (1.0 mg/kg). Controls received injections of PBS alone or no injection. Rats were painlessly sacrificed after 72 hours. Prostate glands were dissected, fixed in 10% buffered formalin for 24 hours, embedded in paraffin, sectioned, and stained with H & E. For each animal the entire prostate gland was embedded and sectioned. All stained sections were examined histologically.
Normal rats were injected in the prostate as in the above Example 2, except they were injected with NTP peptide #17. Rats were painlessly sacrificed after 72 hours and their prostate glands were examined as in Example 2.

## LSLPSSWDYG [NTP peptide #7, AD7c-NTP p335-343]
[1]; injected in skin, subcutaneously and in extremity skeletal muscle, in saline, at 0.1-1 mg/mL, sacrificed at 24 hours
  effect on tissue at sites of injection: produced necrosis of tissue at the injection sites
[1]; skin, subcutaneous and skeletal muscle injection, 24 hours
  spread of necrosis beyond the site of injection: did not appear to spread far beyond the site of injection
Rat prostate
  effect on tissue at sites of injection (prostate): necrosis of tissue at the injection sites with loss of glandular epithelium, flattening and atrophy
